Here are results for eleven compounds from patent publication US4349545A, “Novel erythromycin a derivatives” (Roussel Uclaf, priority 1980, dated 1982).

Assay [1] has as its system Staphylococcus aureus exp. n° 54 146. Nature of the assay: serial dilution liquid medium MIC, Staphylococcus aureus exp. n° 54 146. Particulars: Staphylococcus aureus exp. 54 146; 24 hours at 37° C.; read-out: minimum inhibiting concentration (MIC). The format is cell-based. Here is the method: (§1) The method was a serial dilution of liquid medium test wherein a series of tubes were prepared containing the same amount of sterile nutritive medium and increasing amounts of the test product was distributed in each tube. The tubes were then seeded with a bacterial strain and incubated for 24 hours in an oven at 37° C. The degree of inhibition was determined by transillumination to determine the minimum inhibiting concentration (MIC) express in μg/ml and the results are reported in the following Tables.

Assay [2] relates to Staphylococcus aureus UC 1128. The assay can be described thus: serial dilution liquid medium MIC, Staphylococcus aureus UC 1128 pen-resistant. Particulars: UC1128; Staphylococcus aureus UC 1128 pen-resistant; 24 hours at 37° C.; read-out: minimum inhibiting concentration (MIC). The format is cell-based. Here is the method: as §1
Assay [3] relates to Streptococcus faecalis 5435. The assay can be described thus: serial dilution liquid medium MIC, Streptococcus faecalis 5435. Format: cell-based. Particulars: Enterococcus faecalis, 24 hours at 37° C., read-out: minimum inhibiting concentration (MIC). The protocol: as §1
For assay [4], the system named is Streptococcus faecalis 99 F 74. Nature of the assay: serial dilution liquid medium MIC, Streptococcus faecalis 99 F 74. The format is cell-based. As to conditions: Enterococcus faecalis, 99F74, 24 hours at 37° C., read-out: minimum inhibiting concentration (MIC). Here is the method:
as §1

Assay [5] has as its system Streptococcus faecalis 5432. The assay can be described thus: serial dilution liquid medium MIC, Streptococcus faecalis 5432. The format is cell-based. Particulars: Enterococcus faecalis, 24 hours at 37° C., read-out: minimum inhibiting concentration (MIC). Here is the method:
as §1

Assay [6] deals with Streptococcus pyogenes A 561. Nature of the assay: serial dilution liquid medium MIC, Streptococcus pyogenes A 561. Format: cell-based. As to conditions: A561, 24 hours at 37° C., read-out: minimum inhibiting concentration (MIC). Here is the method:
as §1

Assay [7] deals with Staphylococcus aureus 1061. Nature of the assay: serial dilution liquid medium MIC, Staphylococcus aureus 1061 pen-sensibles. The format is cell-based. As to conditions: 24 hours at 37° C., read-out: minimum inhibiting concentration (MIC). Here is the method: as §1
For assay [8], the system named is Staphylococcus aureus No. 54,146. The assay can be described thus: In vivo activity in mice experimentally infected with Staphylococcus aureus No. 54,146. As to conditions: groups of 10 mice. Here is the method:
The test was effected with the compounds of the invention and erythromycin as a reference on groups of 10 mice weighing about 21 g experimentally infected with Staphylococcus aureus No. 54,146 by intraperitoneal administration of 0.5 ml of a 22 hour culture of the said organism in bouillon with a pH of 7 diluted to 1/6 with physiological water. The test compounds were orally administrated to the mice 1,5 and 24 hours after the infection and the mortality on the 8th day was determined.

Where [9] appears, read: dose 0,5mg oral, 1,5 and 24 hours after infection.
[10] abbreviates: dose 0,25mg oral, 1,5 and 24 hours after infection.
Where [11] appears, read: dose 0,75mg oral, 1,5 and 24 hours after infection.

In brackets after ≈: the same amount, converted by molar mass.

Consider `CC[C@H]1OC(=O)[C@H](C)[C@@H](O[C@H]2C[C@@](C)(OC)[C@@H](O)[C@H](C)O2)[C@H](C)[C@@H](O[C@@H]2O[C@H](C)C[C@H](N(C)C)[C@H]2O)[C@](C)(O)C[C@@H](C)C(=NOCCC#N)[C@H](C)[C@@H](O)[C@]1(C)O` [Example 14, 9-[0-(2-cyanoethyl)-oxime] of erythromycin], for which the MIC in assay [1] was determined as 0.4 µg/mL (≈ 0.499 µM); in assay [2] it was 0.4 µg/mL (≈ 0.499 µM); in assay [3] it was 0.4 µg/mL (≈ 0.499 µM); in assay [4] it was 0.05 µg/mL (≈ 0.0623 µM); in assay [5] it was 0.1 µg/mL (≈ 0.125 µM); in assay [6], 0.02 µg/mL (≈ 0.0249 µM). Moreover, the MIC in assay [7] was determined as 0.2 µg/mL (≈ 0.249 µM).

In the case of `CC[C@H]1OC(=O)[C@H](C)[C@@H](O[C@H]2C[C@@](C)(OC)[C@@H](O)[C@H](C)O2)[C@H](C)[C@@H](O[C@@H]2O[C@H](C)C[C@H](N(C)C)[C@H]2O)[C@](C)(O)C[C@@H](C)C(=NOCOCCNC)[C@H](C)[C@@H](O)[C@]1(C)O` [Example 25, 9-[0-{(2-methylamino-ethoxy}-methyl)-oxime] of erythromycin], the MIC was 0.5 µg/mL (≈ 0.598 µM) in assay [1]; 0.5 µg/mL (≈ 0.598 µM) in assay [2]; 0.2 µg/mL (≈ 0.239 µM) in assay [3]; 0.05 µg/mL (≈ 0.0598 µM) in assay [4]; 0.05 µg/mL (≈ 0.0598 µM) in assay [5]; not above 0.01 µg/mL in assay [6]. For the same compound, in assay [7], the MIC was determined as 0.5 µg/mL (≈ 0.598 µM).

In the case of `CC[C@H]1OC(=O)[C@H](C)[C@@H](O[C@H]2C[C@@](C)(OC)[C@@H](O)[C@H](C)O2)[C@H](C)[C@@H](O[C@@H]2O[C@H](C)C[C@H](N(C)C)[C@H]2O)[C@](C)(O)C[C@@H](C)C(=NOCOCCN2CCOCC2)[C@H](C)[C@@H](O)[C@]1(C)O` [Example 26, 9-[0-{(2-(morpholin-4-yl)-ethoxy}-methyl)-oxime] of erythromycin], the MIC was 0.6 µg/mL (≈ 0.673 µM) in assay [1]; 0.1 µg/mL (≈ 0.112 µM) in assay [2]; 1 µg/mL (≈ 1.12 µM) in assay [3]; 0.2 µg/mL (≈ 0.224 µM) in assay [4]; 0.2 µg/mL (≈ 0.224 µM) in assay [5]; 0.1 µg/mL (≈ 0.112 µM) in assay [6]. Also, in assay [7], the MIC worked out at 0.6 µg/mL (≈ 0.673 µM).

`CC[C@H]1OC(=O)[C@H](C)[C@@H](O[C@H]2C[C@@](C)(OC)[C@@H](O)[C@H](C)O2)[C@H](C)[C@@H](O[C@@H]2O[C@H](C)C[C@H](N(C)C)[C@H]2O)[C@](C)(O)C[C@@H](C)C(=NOCCOCCO)[C@H](C)[C@@H](O)[C@]1(C)O` [Example 17, 9-[0-(2-{2-hydroxyethoxy}-ethyl)-oxime] of erythromycin]: the MIC in assay [1] is 0.4 µg/mL (≈ 0.478 µM); in assay [2], 0.6 µg/mL (≈ 0.717 µM); in assay [3], 0.6 µg/mL (≈ 0.717 µM); in assay [4] it was 0.1 µg/mL (≈ 0.119 µM); in assay [5], 0.1 µg/mL (≈ 0.119 µM); in assay [6], 0.05 µg/mL (≈ 0.0597 µM). Besides, the MIC in assay [7] was 0.4 µg/mL (≈ 0.478 µM).

On to `CC[C@H]1OC(=O)[C@H](C)[C@@H](O[C@H]2C[C@@](C)(OC)[C@@H](O)[C@H](C)O2)[C@H](C)[C@@H](O[C@@H]2O[C@H](C)C[C@H](N(C)C)[C@H]2O)[C@](C)(O)C[C@@H](C)C(=NOCCN2CCN(C)CC2)[C@H](C)[C@@H](O)[C@]1(C)O` [Example 43, 9-[O-(2-{4-methyl-piperazino-1-yl}-ethyl)-oxime] of erythromycin], for which the MIC in assay [1] was 1 µg/mL (≈ 1.14 µM); in assay [2], 2 µg/mL (≈ 2.29 µM); in assay [3] it was 0.4 µg/mL (≈ 0.457 µM); in assay [4] it was 0.05 µg/mL (≈ 0.0571 µM); in assay [5] it was 0.2 µg/mL (≈ 0.229 µM); in assay [6], not above 0.01 µg/mL. The MIC in assay [7] worked out at 1 µg/mL (≈ 1.14 µM).

As for `CC[C@H]1OC(=O)[C@H](C)[C@@H](O[C@H]2C[C@@](C)(OC)[C@@H](O)[C@H](C)O2)[C@H](C)[C@@H](O[C@@H]2O[C@H](C)C[C@H](N(C)C)[C@H]2O)[C@](C)(O)C[C@@H](C)C(=NOCOCCN(CC)CC)[C@H](C)[C@@H](O)[C@]1(C)O` [Example 23, 9-[0-{(2-diethylaminoethoxy)-methyl}-oxime] of erythromycin], the MIC in assay [1] was found to be 0.6 µg/mL (≈ 0.683 µM); in assay [2] it was 1 µg/mL (≈ 1.14 µM); in assay [3] it was 0.2 µg/mL (≈ 0.228 µM); in assay [4], 0.1 µg/mL (≈ 0.114 µM); in assay [5], 0.1 µg/mL (≈ 0.114 µM); in assay [6], 0.02 µg/mL (≈ 0.0228 µM). For the same compound, the MIC in assay [7] is 0.4 µg/mL (≈ 0.456 µM).

On to `CC[C@H]1OC(=O)[C@H](C)[C@@H](O[C@H]2C[C@@](C)(OC)[C@@H](O)[C@H](C)O2)[C@H](C)[C@@H](O[C@@H]2O[C@H](C)C[C@H](N(C)C)[C@H]2O)[C@](C)(O)C[C@@H](C)C(=NOCCN2CCCC2)[C@H](C)[C@@H](O)[C@]1(C)O` [Example 32, 9-[0-(2-{pyrrolidin-1-yl}-ethyl)-oxime] of erythromycin], for which the MIC in assay [1] is 0.6 µg/mL (≈ 0.709 µM); in assay [2], 1 µg/mL (≈ 1.18 µM); in assay [3], 0.2 µg/mL (≈ 0.236 µM); in assay [4] it was 0.1 µg/mL (≈ 0.118 µM); in assay [5], 0.05 µg/mL (≈ 0.0591 µM); in assay [6], not above 0.01 µg/mL. Also, the MIC in assay [7] is 0.4 µg/mL (≈ 0.473 µM).

With `CC[C@H]1OC(=O)[C@H](C)[C@@H](O[C@H]2C[C@@](C)(OC)[C@@H](O)[C@H](C)O2)[C@H](C)[C@@H](O[C@@H]2O[C@H](C)C[C@H](N(C)C)[C@H]2O)[C@](C)(O)C[C@@H](C)C(=NOCOCCCl)[C@H](C)[C@@H](O)[C@]1(C)O` [Example 21, 9-[0-{(2-chloroethoxy)-methyl}-oxime] of erythromycin], the MIC in assay [1] amounted to 0.2 µg/mL (≈ 0.238 µM); in assay [2], 0.2 µg/mL (≈ 0.238 µM); in assay [4], 0.1 µg/mL (≈ 0.119 µM); in assay [5], 0.1 µg/mL (≈ 0.119 µM); in assay [6], 0.02 µg/mL (≈ 0.0238 µM); in assay [7], 0.2 µg/mL (≈ 0.238 µM). Besides, the “No. of mice living on the 8th day” value in assay [8] (setting [9]) turned out to be 6 mice; in assay [8] (setting [10]), 0 mice; in assay [8] (setting [11]), 10 mice.

With `CC[C@H]1OC(=O)[C@H](C)[C@@H](O[C@H]2C[C@@](C)(OC)[C@@H](O)[C@H](C)O2)[C@H](C)[C@@H](O[C@@H]2O[C@H](C)C[C@H](N(C)C)[C@H]2O)[C@](C)(O)C[C@@H](C)C(=O)[C@H](C)[C@@H](O)[C@]1(C)O` [Erythromycin, erythromycin], the “No. of mice living on the 8th day” value was determined as 5 mice in assay [8] (setting [11]); 9 mice in assay [8] (dose 1mg oral, 1,5 and 24 hours after infection); 10 mice in assay [8] (dose 2mg oral, 1,5 and 24 hours after infection); 9 mice in assay [8] (dose 1,5mg oral, 1,5 and 24 hours after infection).

Consider `CC[C@H]1OC(=O)[C@H](C)[C@@H](O[C@H]2C[C@@](C)(OC)[C@@H](O)[C@H](C)O2)[C@H](C)[C@@H](O[C@@H]2O[C@H](C)C[C@H](N(C)C)[C@H]2O)[C@](C)(O)C[C@@H](C)C(=NOCCN(C(C)C)C(C)C)[C@H](C)[C@@H](O)[C@]1(C)O` [Example 41, 9-[O-(2-disopropylamino-ethyl)-oxime] of erythromycin], for which the MIC came to 1 µg/mL (≈ 1.14 µM) in assay [1]; 1 µg/mL (≈ 1.14 µM) in assay [2]; 0.2 µg/mL (≈ 0.228 µM) in assay [4]; 0.2 µg/mL (≈ 0.228 µM) in assay [5]; 0.05 µg/mL (≈ 0.0571 µM) in assay [6]; 0.5 µg/mL (≈ 0.571 µM) in assay [7]. The “No. of mice living on the 8th day” value in assay [8] (setting [9]) came out at 10 mice; in assay [8] (setting [10]), 9 mice.

For `CC[C@H]1OC(=O)[C@H](C)[C@@H](O[C@H]2C[C@@](C)(OC)[C@@H](O)[C@H](C)O2)[C@H](C)[C@@H](O[C@@H]2O[C@H](C)C[C@H](N(C)C)[C@H]2O)[C@](C)(O)C[C@@H](C)C(=NOCCN(CC)CC)[C@H](C)[C@@H](O)[C@]1(C)O` [Example 31, 9-[0-(2-diethylaminoethyl)-oxime] of erythromycin], the MIC in assay [1] was determined as 1 µg/mL (≈ 1.18 µM); in assay [2], 1 µg/mL (≈ 1.18 µM); in assay [4], 0.1 µg/mL (≈ 0.118 µM); in assay [5], 0.1 µg/mL (≈ 0.118 µM); in assay [6], 0.02 µg/mL (≈ 0.0236 µM); in assay [7], 0.5 µg/mL (≈ 0.59 µM). Further, the “No. of mice living on the 8th day” value in assay [8] (setting [9]) came to 10 mice; in assay [8] (setting [10]), 4 mice.
